Where “and” joins values, the source holds several entries; their conditions need not be identical. Equal entries are not always repeated.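 Five compound concentrations were applied to cells in 96-well plates for 48 hours; endpoints were derived by simple linear interpolation of the resulting dose-response curve. GI50 marks 50% less growth. Definition used: TGI = concentration required for complete inhibition of growth.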
Tests used:
Assay in all cases: NCI anticancer screen, dose series, 48 h
A498 renal = system: A498 renal
SF-295 CNS = system: SF-295 CNS
NCI-H522 lung = system: NCI-H522 lung
SK-MEL-28 melanoma = system: SK-MEL-28 melanoma
SNB-75 CNS = system: SNB-75 CNS
HL-60(TB) leukemia = system: HL-60(TB) leukemia
MDA-MB-435 = system: MDA-MB-435
OVCAR-3 ovarian = system: OVCAR-3 ovarian
HOP-62 NSCLC = system: HOP-62 NSCLC
U251 CNS = system: U251 CNS

Structure (SMILES)	GI50 (A498 renal)	TGI (A498 renal)	GI50 (SF-295 CNS)	TGI (SF-295 CNS)	GI50 (NCI-H522 lung)	TGI (NCI-H522 lung)	GI50 (SK-MEL-28 melanoma)	TGI (SK-MEL-28 melanoma)	GI50 (SNB-75 CNS)	TGI (SNB-75 CNS)	GI50 (HL-60(TB) leukemia)	TGI (HL-60(TB) leukemia)	GI50 (MDA-MB-435)	TGI (MDA-MB-435)	GI50 (OVCAR-3 ovarian)	TGI (OVCAR-3 ovarian)	GI50 (HOP-62 NSCLC)	TGI (HOP-62 NSCLC)	GI50 (U251 CNS)	TGI (U251 CNS)
CC(=O)c1c(C)[nH]c(-c2nc3ccc(N4CCN(C)CC4)cc3[nH]2)c1-c1ccc(OCC2CCOCC2)cc1	0.345 µM	2.2 µM	2.67 µM	15.3 µM	0.548 µM	13.8 µM	1.62 µM	17 µM	0.0365 µM	0.887 µM	0.129 µM	0.785 µM	0.477 µM	12.2 µM	0.889 µM	14 µM	0.524 µM	14.7 µM	2.1 µM	17.5 µM
COC(=O)c1cc2c(cc1Cl)SC(N(N(C)C)S(=O)(=O)c1ccc(Br)s1)=NS2(=O)=O	28.8 µM	80.1 µM	33.2 µM	97.3 µM	17.9 µM	42.1 µM	17.8 µM	35.3 µM	30.5 µM	88.7 µM	19.6 µM	44.5 µM	23.1 µM	49.7 µM	21.6 µM	56.9 µM	31.1 µM	> 100 µM	30.2 µM	88.2 µM
O=c1ccn(C2OC(CO)C(O)C2F)c(=O)[nH]1 (stereo unspecified)	> 1000 µM	> 1000 µM	> 1000 µM	> 1000 µM	> 1000 µM	> 1000 µM	> 1000 µM	> 1000 µM	–	> 100 µM	> 1000 µM	> 1000 µM	> 1000 µM	> 1000 µM	> 1000 µM	> 1000 µM	> 1000 µM	> 1000 µM	> 1000 µM	> 1000 µM
O=C1c2ccccc2-c2c1c1ccccc1c(=O)n2CCCNCCCn1ccnc1	2.05 µM	7.83 µM	0.419 µM	1.99 µM	1.66 µM	9.29 µM	2.94 µM	8.92 µM	2.61 µM	9.84 µM	0.653 µM	5.01 µM	1.72 µM	5.51 µM	1.63 µM	6.48 µM	0.29 µM	1.13 µM	0.285 µM	1.42 µM
CCN(CC)CCCC(C)Nc1c2ccc(Cl)cc2nc2ccc(OC)cc12 (stereo unspecified)	1.64 µM	6.93 µM and 5.11 µM	1.55 µM	3.51 µM and 2.4 µM	–	2.97 µM	2.27 µM	4.4 µM and 3.1 µM	2.35 µM	6.66 µM and 3.05 µM	1.81 µM	9.64 µM and 10.7 µM	–	3.08 µM and 2.79 µM	–	6.89 µM and 9.8 µM	1.61 µM	3.98 µM and 8.04 µM	1.89 µM	4.1 µM and 3.39 µM
O=C1Nc2ccc(C(=O)c3ccco3)cc2/C1=C/c1cc(Cl)c(O)c(Cl)c1	3.69 µM	9.72 µM	8.21 µM	> 25 µM	3.91 µM	11.9 µM	4.17 µM	> 18.1 µM	6.16 µM	> 25 µM	6.93 µM	> 21.1 µM	4.11 µM	24.2 µM	4.32 µM	10.6 µM	7.45 µM	> 22.1 µM	3.95 µM	> 25 µM
COc1cc(Nc2nccc(Nc3ccc4c(C)[nH]nc4c3)n2)cc(OC)c1OC	0.253 µM	1.94 µM	2.66 µM	9.77 µM	1.52 µM	7.18 µM	3.28 µM	14.4 µM	0.486 µM	3.22 µM	3.31 µM	9.04 µM	0.666 µM	3.09 µM	2.5 µM	7.54 µM	1.08 µM	8.34 µM	3.92 µM	17.8 µM
O=S(=O)(NC1=NCCN1C(=S)SN1CCn2c1nsc2=S)c1ccc(Br)cc1	33.7 µM	> 100 µM	46.2 µM	> 100 µM	15 µM	36.8 µM	72.5 µM	> 100 µM	44.5 µM	> 100 µM	24.3 µM	60.1 µM	27.6 µM	> 100 µM	23.8 µM	> 100 µM	52.4 µM	> 100 µM	38.9 µM	> 100 µM
O=c1c2cc(Cl)ccc2oc2ccc(OCCCCCN3CCCCC3)cc12	6.28 µM	12.8 µM	6.62 µM	13.5 µM	3.48 µM	10.4 µM	1.09 µM	2.66 µM	7.44 µM	14 µM	6.24 µM	15.4 µM	1.02 µM	2.37 µM	5.47 µM	11.5 µM	7.03 µM	14.4 µM	6.12 µM	12.7 µM
